Here are results for twelve molecules from US9096615B2, “Bridged bicyclic amino thiazine dioxide compounds as inhibitors of beta-secretase and methods of use thereof” (AMGEN INC., priority 2013, dated 2015).

SMILES strings stand for the structures.

For orientation: IC50 means the point on the concentration scale where inhibition reaches its midpoint.

The target of one assay is BACE1 (Homo sapiens, UniProt P56817). Nature of the assay: In vitro enzymatic BACE FRET assay. It counts as biochemical. The conditions noted are these: average IC50; read-out: BACE1 Enzyme assay IC50. Summed up:
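Fluorescence (excitation 488 nm, […]) from cleavage of quenched peptide substrate (50 nM), reaction run 1 h after 1 h enzyme–inhibitor pre-incubation, then neutralised with Tris. Conditions: 0.2 nM enzyme, pH 4.2 acetate 0.05 M, 10% DMSO final, 100 uM genapol.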

The target in another assay is T1, human Bace2 protein (Homo sapiens, UniProt Q9Y5Z0).
T1 construct: V5 (C); 6-His (C)
T1 sequence (Q9Y5Z0 63-518): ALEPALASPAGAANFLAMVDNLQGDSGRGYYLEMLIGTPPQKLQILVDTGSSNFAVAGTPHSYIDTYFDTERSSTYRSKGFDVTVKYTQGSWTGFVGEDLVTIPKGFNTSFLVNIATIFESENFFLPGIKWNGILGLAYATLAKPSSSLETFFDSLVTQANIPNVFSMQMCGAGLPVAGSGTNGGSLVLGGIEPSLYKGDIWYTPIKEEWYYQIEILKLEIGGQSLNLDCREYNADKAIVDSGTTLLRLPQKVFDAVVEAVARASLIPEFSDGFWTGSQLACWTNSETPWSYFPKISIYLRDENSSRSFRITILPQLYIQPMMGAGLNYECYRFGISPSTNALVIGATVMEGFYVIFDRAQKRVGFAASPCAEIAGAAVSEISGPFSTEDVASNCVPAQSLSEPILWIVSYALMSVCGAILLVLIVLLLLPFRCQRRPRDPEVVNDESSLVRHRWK
Put plainly: In vitro enzymatic BACE2 FRET assay. It is filed as biochemical. The conditions noted are these: average IC50; read-out: BACE2 Enzyme assay IC50. Put shortly:
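Human Bace2 with C-terminal V5/6-His tag (0.2 nM) pre-incubated 1 h with inhibitor in 0.05 M acetate pH 4.2, 10% DMSO, 100 uM genapol; reaction started with 50 nM FRET peptide substrate, run 1 h. Stopped with Tris to neutral pH; fluorescence increase from substrate cleavage measured.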

BACE1, sequence (P56817 46-501, species assumed): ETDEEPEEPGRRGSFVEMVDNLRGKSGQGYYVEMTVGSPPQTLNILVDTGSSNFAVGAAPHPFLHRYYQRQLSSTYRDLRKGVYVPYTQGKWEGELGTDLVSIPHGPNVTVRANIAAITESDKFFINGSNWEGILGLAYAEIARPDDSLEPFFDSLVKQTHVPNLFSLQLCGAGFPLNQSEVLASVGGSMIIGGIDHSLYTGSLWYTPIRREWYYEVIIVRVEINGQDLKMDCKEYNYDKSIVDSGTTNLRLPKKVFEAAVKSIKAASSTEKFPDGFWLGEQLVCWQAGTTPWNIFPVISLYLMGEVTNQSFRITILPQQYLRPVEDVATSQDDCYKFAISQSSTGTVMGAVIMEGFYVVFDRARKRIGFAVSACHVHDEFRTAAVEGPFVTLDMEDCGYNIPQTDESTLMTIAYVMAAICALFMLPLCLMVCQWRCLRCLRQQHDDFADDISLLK

For the molecule `Cc1cc(C#N)cnc1C(=O)Nc1ccc(F)c([C@@]2(C)N=C(N)[C@@]3(CF)CC[C@@H]2S3(=O)=O)c1` [Example 96, N-(3-((1S,2R,5R)-4-amino-5-(fluoromethyl)-2-methyl-8,8-dioxido-8-thia-3-azabicyclo[3.2.1]oct-3-en-2-yl)-4-fluorophenyl)-5-cyano-3-methyl-2-pyridinecarboxamide], the IC50 on BACE1 is 2 nM; at human Bace2 protein it was 1 nM.
For `C[C@]1(c2cc(Nc3nccc4nc(OCc5ncco5)cnc34)ccc2F)N=C(N)[C@@]2(CF)CC[C@@H]1S2(=O)=O` [Example 104, N-(3-((1S,2R,5R)-4-amino-5-(fluoromethyl)-2-methyl-8,8-dioxido-8-thia-3-azabicyclo[3.2.1]oct-3-en-2-yl)-4-fluorophenyl)-2-(1,3-oxazol-2-ylmethoxy)pyrido[3,4-b]pyrazin-5-amine], the IC50 at BACE1 was determined as 2 nM; on human Bace2 protein it was 3 nM.
For `COc1cnc2c(Nc3ccc(F)c([C@@]4(C)N=C(N)[C@@]5(C)CC[C@@H]4S5(=O)=O)c3)ncnc2c1` [Example 132, N-(3-((1S,2R,5R)-4-amino-2,5-dimethyl-8,8-dioxido-8-thia-3-azabicyclo[3.2.1]oct-3-en-2-yl)-4-fluorophenyl)-7-methoxypyrido[3,2-d]pyrimidin-4-amine], in that order: 6 nM and 51 nM.
As to `COc1cnc2c(Nc3ccc(F)c([C@@]4(C)N=C(N)[C@@]5(C)CC[C@@H]4S5(=O)=O)c3)ncc(F)c2c1` [Example 78, N-(3-((1S,2R,5R)-4-amino-2,5-dimethyl-8,8-dioxido-8-thia-3-azabicyclo[3.2.1]oct-3-en-2-yl)-4-fluorophenyl)-5-fluoro-3-methoxy-1,7-naphthyridin-8-amine], the IC50 was 3 nM on BACE1 and 5 nM on human Bace2 protein.
On the same counts, the results for `COc1cnc(C(=O)Nc2ccc(F)c([C@@]3(C)N=C(N)[C@@]4(C)CC[C@@H]3S4(=O)=O)c2)cn1` [Example 61, N-(3-((1S,2R,5R)-4-amino-2,5-dimethyl-8,8-dioxido-8-thia-3-azabicyclo[3.2.1]oct-3-en-2-yl)-4-fluorophenyl)-5-methoxy-2-pyrazinecarboxamide] are 5 nM and 7 nM.
As to `COc1cnc2c(Nc3ccc(F)c([C@@]4(C)N=C(N)[C@@]5(CF)CC[C@@H]4S5(=O)=O)c3)nccc2n1` [Example 41, N-(3-((1S,2R,5R)-4-amino-5-(fluoromethyl)-2-methyl-8,8-dioxido-8-thia-3-azabicyclo[3.2.1]oct-3-en-2-yl)-4-fluorophenyl)-2-methoxypyrido[3,4-b]pyrazin-5-amine], the IC50 turned out to be 9 nM at BACE1 and 10 nM at human Bace2 protein.
For `C#CCOc1cnc(C(=O)Nc2ccc(F)c([C@@]3(C)N=C(N)[C@@]4(CF)CC[C@@H]3S4(=O)=O)c2)c(C)n1` [Example 59, N-(3-((1S,2R,5R)-4-amino-5-(fluoromethyl)-2-methyl-8,8-dioxido-8-thia-3-azabicyclo[3.2.1]oct-3-en-2-yl)-4-fluorophenyl)-3-methyl-5-(2-propyn-1-yloxy)-2-pyrazinecarboxamide], in that order: 1 nM and 3 nM.
As for `C#CCOc1ccc(C(=O)Nc2ccc(F)c([C@@]3(C)N=C(N)[C@@]4(CF)CC[C@@H]3S4(=O)=O)c2)nc1` [Example 52, N-(3-((1S,2R,5R)-4-amino-5-(fluoromethyl)-2-methyl-8,8-dioxido-8-thia-3-azabicyclo[3.2.1]oct-3-en-2-yl)-4-fluorophenyl)-5-(2-propyn-1-yloxy)-2-pyridinecarboxamide], the IC50 at BACE1 was found to be 1 nM; at human Bace2 protein it was 18 nM.
For `COc1cnc(C(=O)Nc2ccc(F)c([C@@]3(C)N=C(N)[C@@]4(CF)CC[C@@H]3S4(=O)=O)c2)c(C)c1` [Example 42, N-(3-((1S,2R,5R)-4-amino-5-(fluoromethyl)-2-methyl-8,8-dioxido-8-thia-3-azabicyclo[3.2.1]oct-3-en-2-yl)-4-fluorophenyl)-5-methoxy-3-methyl-2-pyridinecarboxamide], in that order: 13 nM and 3 nM.
For `C[C@]1(c2cc(NC(=O)c3ccc(Cl)cn3)ccc2F)N=C(N)[C@@]2(CF)CC[C@@H]1S2(=O)=O` [Example 77, N-(3-((1S,2R,5R)-4-amino-5-(fluoromethyl)-2-methyl-8,8-dioxido-8-thia-3-azabicyclo[3.2.1]oct-3-en-2-yl)-4-fluorophenyl)-5-chloro-2-pyridinecarboxamide], in that order: 3 nM and 1 nM.
For `C[C@]1(c2cc(Nc3nccc4cc(C#N)cnc34)ccc2F)N=C(N)[C@@]2(CF)CC[C@@H]1S2(=O)=O` [Example 100, 8-((3-((1S,2R,5R)-4-amino-5-(fluoromethyl)-2-methyl-8,8-dioxido-8-thia-3-azabicyclo[3.2.1]oct-3-en-2-yl)-4-fluorophenyl)amino)-1,7-naphthyridine-3-carbonitrile], in that order: 1 nM and 0.6 nM.
For `C[C@]1(c2cc(Nc3nccc4nc(OCc5ncco5)cnc34)ccc2F)N=C(N)[C@@]2(C)CC[C@@H]1S2(=O)=O` [Example 140, N-(3-((1S,2R,5R)-4-amino-2,5-dimethyl-8,8-dioxido-8-thia-3-azabicyclo[3.2.1]oct-3-en-2-yl)-4-fluorophenyl)-2-(1,3-oxazol-2-ylmethoxy)pyrido[3,4-b]pyrazin-5-amine], the IC50 turned out to be 1 nM at BACE1 and 20 nM at human Bace2 protein.
